Laboratory results from publication PMC10786919, “Design-rules for stapled peptides with in vivo activity and their application to Mdm2/X antagonists” (Nature Communications, 2024).
≈ marks a conversion by molar mass, not a printed value. Like-named read-outs stand apart in the source and are kept apart here. Positions of bridges follow the written chain, without caps; N, C: chain ends. Non-standard residues stand in square brackets, D forms with d. Residues, ends and D or L forms follow the SMILES beside them. R8 = C=CCCCCCC[C@@](C)(N)C(=O)O; Cba = N[C@@H](CC1CCC1)C(=O)O; S5 = C=CCCC[C@](C)(N)C(=O)O; Ahx = NCCCCCC(=O)O

Experiments:
[1] = test system: Jump-In T-REx CHO-K1 BLA cells; test: cells; assay type: cell-based; conditions: for EC50: read-out: TETCHO: Counterscreen EC50
[2] = Experimental LogD (partition coefficient)
[3] = test system: HCT116 cells; test: Lactate dehydrogenase (LDH) release assay; assay type: cell-based
Method in brief: (§1)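 Read-out was lactate dehydrogenase release, reflecting loss of membrane integrity, in reporter-engineered HCT116 cells (p53-responsive β-lactamase) seeded at 8000 cells per well. Final DMSO was 0.5%, and reported values are geometric means from three or more biological repeats.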

[4] = test system: p53 responsive β-lactamase reporter in HCT116 cells; test: cells; assay type: cell-based; conditions: for EC50: read-out: p53 reporter assay EC50
Method in brief: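 Read-out used the ToxBLAzer Dual Screen for β-lactamase driven by a stably integrated p53-responsive reporter. Assay: 8000 HCT116 cells per well at 0.5% final DMSO. Reported numbers are geometric means over a minimum of three biological replicates.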

[5] = Solubility assay (kinetic solubility, PBS pH 7); assay type: physicochemical; conditions: pH 7, aqueous buffer, kinetic from dmso stock
Method in brief: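 Values derive from peak-area ratios of sample versus a 100 µM standard, scaled by that standard's concentration.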

[6] = physchem
[7] = Lactate dehydrogenase (LDH) release assay; assay type: cell-based; conditions: LDH: Cytotoxicity assay EC50
Method in brief: as §1

[8] = not stated, Partition Coeff LogD
[9] = pH 7, PBS, read-out: Solubility

Row | Compound | EPSA [6] [A^2] | logD [2, 8] | EC50 [7] [µM] | solubility kinetic [5, 9] [µM] | also measured
1 | CC(C)[C@@H](CS(=O)(=O)C(C)C)N1C(=O)[C@@](C)(CC(=O)O)C[C@H](c2cccc(Cl)c2)[C@H]1c1ccc(Cl)cc1 [AMG232] |  |  |  |  | TETCHO: Counterscreen % Effect ([1]; 0% FBS 4Hr): 72.2%; TETCHO: Counterscreen % Effect ([1]; 10% FBS 4Hr): 30.6%; TETCHO: Counterscreen % Effect ([1]; 10% FBS 16Hr): -10.3%; EC50 ([1]; T-REx-CHO-K1, 4 h, 0% FBS 4Hr): 45.6 µM; EC50 ([1]; T-REx-CHO-K1, 4 h, 10% FBS 4Hr): > 50.4 µM; EC50 ([1]; T-REx-CHO-K1, 16 h, 10% FBS 16Hr): > 50.4 µM; logD [2]: 2.25; LDH: Cytotoxicity assay % Effect ([3]; 0% FBS 4Hr): -4.2%; LDH: Cytotoxicity assay % Effect ([3]; 10% FBS 4Hr): -12.8%; LDH: Cytotoxicity assay % Effect ([3]; 10% FBS 16Hr): -18.8%; p53 reporter assay % Effect ([4]; 0% FBS 4Hr): 95.1%; p53 reporter assay % Effect ([4]; 10% FBS 4Hr): 82.7%; p53 reporter assay % Effect ([4]; 10% FBS 16Hr): 83.6%; EC50 ([4]; Homo sapiens, HCT-116, 4 h, 0% FBS 4Hr): 0.0116 µM; EC50 ([4]; Homo sapiens, HCT-116, 4 h, 10% FBS 4Hr): 0.0742 µM; EC50 ([4]; Homo sapiens, HCT-116, 16 h, 10% FBS 16Hr): 0.255 µM; solubility kinetic [5]: 138 µM (≈ 78.5 µg/mL)
2 | CC(=O)N[C@@H](CCCNC(=N)N)C(=O)N[C@H](C(=O)N[C@@H](Cc1ccccc1)C(=O)N[C@]1(C)CCCCCCC=CCCC[C@@](C)(C(=O)N[C@@H](CO)C(=O)N[C@@H](C)C(=O)N[C@@H](C)C(N)=O)NC(=O)[C@H](CC2CCC2)NC(=O)[C@H](CC(C)C)NC(=O)[C@H](CCC(N)=O)NC(=O)[C@H](Cc2c[nH]c3ccccc23)NC(=O)[C@H](Cc2ccc(O)cc2)NC(=O)[C@H](CCC(=O)O)NC1=O)[C@@H](C)O [MP-191] (Ac-RTF[R8]EYWQL[Cba][S5]SAA-NH2; staple 4-11) | 222 | 2.72 | > 50 | 3 (≈ 5.49 µg/mL) | 
3 | CC(=O)N[C@@H](CC(C)C)C(=O)N[C@H](C(=O)N[C@@H](Cc1ccccc1)C(=O)N[C@]1(C)CCCCCCC=CCCC[C@@](C)(C(=O)N[C@@H](CO)C(=O)N[C@@H](C)C(=O)N[C@@H](C)C(N)=O)NC(=O)[C@H](CC2CCC2)NC(=O)[C@H](CCCNC(=N)N)NC(=O)[C@H](CCC(N)=O)NC(=O)[C@H](Cc2c[nH]c3ccccc23)NC(=O)[C@H](Cc2ccc(O)cc2)NC(=O)[C@H](CCC(=O)O)NC1=O)[C@@H](C)O [MP-195] (Ac-LTF[R8]EYWQR[Cba][S5]SAA-NH2; staple 4-11) | 216 | 2.87 | > 50 | 3 (≈ 5.49 µg/mL) | 
4 | CC(=O)N[C@@H](CC(C)C)C(=O)N[C@H](C(=O)N[C@@H](Cc1ccccc1)C(=O)N[C@]1(C)CCCCCCC=CCCC[C@@](C)(C(=O)N[C@@H](CCCNC(=N)N)C(=O)N[C@@H](C)C(=O)N[C@@H](C)C(N)=O)NC(=O)[C@H](CC2CCC2)NC(=O)[C@H](CC(C)C)NC(=O)[C@H](CCC(N)=O)NC(=O)[C@H](Cc2c[nH]c3ccccc23)NC(=O)[C@H](Cc2ccc(O)cc2)NC(=O)[C@H](CCC(=O)O)NC1=O)[C@@H](C)O [MP-196] (Ac-LTF[R8]EYWQL[Cba][S5]RAA-NH2; staple 4-11) | 214 | 2.77 | > 50 | 3 (≈ 5.57 µg/mL) | 
5 | CC(=O)N[C@@H](Cc1c[nH]cn1)C(=O)N[C@H](C(=O)N[C@@H](Cc1ccccc1)C(=O)N[C@]1(C)CCCCCCC=CCCC[C@@](C)(C(=O)N[C@@H](CO)C(=O)N[C@@H](C)C(=O)N[C@@H](C)C(N)=O)NC(=O)[C@H](CC2CCC2)NC(=O)[C@H](CC(C)C)NC(=O)[C@H](CCC(N)=O)NC(=O)[C@H](Cc2c[nH]c3ccccc23)NC(=O)[C@H](Cc2ccc(O)cc2)NC(=O)[C@H](CCC(=O)O)NC1=O)[C@@H](C)O [MP-197, ATSP-7041 (L1H)] (Ac-HTF[R8]EYWQL[Cba][S5]SAA-NH2; staple 4-11) | 222 | 2.56 | > 50 | 17 (≈ 30.8 µg/mL) | 
6 | CC(=O)N[C@@H](CC(C)C)C(=O)N[C@H](C(=O)N[C@@H](Cc1ccccc1)C(=O)N[C@]1(C)CCCCCCC=CCCC[C@@](C)(C(=O)N[C@@H](CO)C(=O)N[C@@H](C)C(=O)N[C@@H](C)C(N)=O)NC(=O)[C@H](CC2CCC2)NC(=O)[C@H](Cc2c[nH]cn2)NC(=O)[C@H](CCC(N)=O)NC(=O)[C@H](Cc2c[nH]c3ccccc23)NC(=O)[C@H](Cc2ccc(O)cc2)NC(=O)[C@H](CCC(=O)O)NC1=O)[C@@H](C)O [MP-200, ATSP-7041 (L9H)] (Ac-LTF[R8]EYWQH[Cba][S5]SAA-NH2; staple 4-11) | 219 | 2.69 | > 50 | 94.5 (≈ 171 µg/mL) | 
7 | CC(=O)N[C@@H](Cc1ccccc1)C(=O)N[C@]1(C)CCCCCCC=CCCC[C@@](C)(C(=O)N[C@@H](CO)C(N)=O)NC(=O)[C@H](CC2CCC2)NC(=O)[C@H](CC(C)C)NC(=O)[C@H](CCC(N)=O)NC(=O)[C@H](Cc2c[nH]c3ccccc23)NC(=O)[C@H](Cc2ccc(O)cc2)NC(=O)[C@H](CCC(=O)O)NC1=O [MP-203] (Ac-F[R8]EYWQL[Cba][S5]S-NH2; staple 2-9) | 213 | 2.61 | > 50 | 96 (≈ 137 µg/mL) | 
8 | CC(=O)N[C@@H](CC(C)C)C(=O)N[C@H](C(=O)N[C@@H](Cc1ccccc1)C(=O)N[C@]1(C)CCCCCCC=CCCC[C@@](C)(C(=O)N[C@@H](CO)C(N)=O)NC(=O)[C@H](CC2CCC2)NC(=O)[C@H](CC(C)C)NC(=O)[C@H](CCC(N)=O)NC(=O)[C@H](Cc2c[nH]c3ccccc23)NC(=O)[C@H](Cc2ccc(O)cc2)NC(=O)[C@H](CCC(=O)O)NC1=O)[C@@H](C)O [MP-204] (Ac-LTF[R8]EYWQL[Cba][S5]S-NH2; staple 4-11) | 216 | 2.81 | > 50 | 15 (≈ 24.7 µg/mL) | 
9 | CC(=O)N[C@@H](CCCNC(=N)N)C(=O)N[C@@H](CCCNC(=N)N)C(=O)N[C@@H](CCCNC(=N)N)C(=O)NCCCCCC(=O)N[C@H](C(=O)N[C@@H](CO)C(=O)N[C@@H](Cc1ccccc1)C(=O)N[C@]1(C)CCCCCCC=CCCC[C@@](C)(C(N)=O)NC(=O)[C@H](CC(C)C)NC(=O)[C@H](CC(C)C)NC(=O)[C@H](C)NC(=O)[C@H](Cc2c[nH]c3ccccc23)NC(=O)[C@H](Cc2ccc(O)cc2)NC(=O)[C@H](CCC(=O)O)NC1=O)[C@@H](C)O [MP-1177] |  |  | 31.8 |  | TETCHO: Counterscreen % Effect ([1]; 0% FBS 4Hr): 50.69%; EC50 ([1]; 0% FBS 4Hr): 17.6 µM; LDH: Cytotoxicity assay % Effect [3]: 51.96%; EC50 ([4]; 0% FBS 4Hr): 8.42 µM
10 | CC(=O)N[C@@H](CC(C)C)C(=O)N[C@@H](CCCNC(=N)N)C(=O)N[C@@H](Cc1ccccc1)C(=O)N[C@]1(C)CCCCCCC=CCCC[C@@](C)(C(=O)N[C@@H](CO)C(=O)N[C@@H](C)C(=O)N[C@@H](C)C(N)=O)NC(=O)[C@H](CC2CCC2)NC(=O)[C@H](CC(C)C)NC(=O)[C@H](CCC(N)=O)NC(=O)[C@H](Cc2c[nH]c3ccccc23)NC(=O)[C@H](Cc2ccc(O)cc2)NC(=O)[C@H](CCC(=O)O)NC1=O [MP-1192] (Ac-LRF[R8]EYWQL[Cba][S5]SAA-NH2; staple 4-11) | 220 | 2.79 | > 50 | 3 (≈ 5.53 µg/mL) | 
11 | CC(=O)N[C@@H](CCCNC(=N)N)C(=O)N[C@@H](CCCNC(=N)N)C(=O)N[C@@H](CCCNC(=N)N)C(=O)NCCCCCC(=O)N[C@H](C(=O)N[C@@H](CO)C(=O)N[C@@H](Cc1ccccc1)C(=O)N[C@]1(C)CCCCCCC=CCCC[C@@](C)(C(=O)N[C@@H](CCC(=O)O)C(=O)N[C@@H](CC(N)=O)C(=O)N[C@@H](Cc2ccccc2)C(N)=O)NC(=O)[C@H](CC(C)C)NC(=O)[C@H](CC(C)C)NC(=O)[C@H](C)NC(=O)[C@H](Cc2c[nH]c3ccccc23)NC(=O)[C@H](Cc2ccc(O)cc2)NC(=O)[C@H](CCC(=O)O)NC1=O)[C@@H](C)O [MP-2009] (Ac-RRR[Ahx]TSF[R8]EYWALL[S5]ENF-NH2; staple 8-15) |  |  | > 50 |  | TETCHO: Counterscreen % Effect ([1]; 0% FBS 4Hr): 68.36%; EC50 ([1]; 0% FBS 4Hr): 16.6 µM; LDH: Cytotoxicity assay % Effect [3]: 32.46%; EC50 ([4]; 0% FBS 4Hr): 9.74 µM
